Assay results from ChEMBL document CHEMBL1148484, “Design, synthesis, and biological evaluation of doxorubicin-formaldehyde conjugates targeted to breast cancer cells” (J Med Chem, 2004).
pIC50: −log10 of the molar value.

How the values were obtained:
[1] = test system: MCF7; test: cells; details: Homo sapiens
Description: Inhibition of estrogen receptor positive MCF-7 breast cancer cell proliferation

[2] = test system: MDA-MB-435; test: cells; details: Homo sapiens
Description: Inhibition of MDA-MB-435 breast cancer cell proliferation

[3] = test system: MDA-MB-231; test: cells; details: Homo sapiens
Description: Inhibition of estrogen receptor negative MDA-MB-231 breast cancer cell proliferation

[4] = test system: NCI/ADR-RES; test: cells; details: Homo sapiens
Description: Inhibition of MCF-7/Adr breast cancer cell proliferation

[5] = target: Estrogen receptor (Homo sapiens, UniProt Q92731+P03372); details: mcf-7
Description: Inhibition of [3H]E2 binding to estrogen receptor alpha in MCF-7 cell lysate

Structure (SMILES)	pIC50 [1]	pIC50 [2]	pIC50 [3]	pIC50 [4]	IC50 [5]
CC/C(=C(\c1ccccc1)c1ccc(OCCN(C)C)cc1)c1ccccc1 [TAMOXIFEN]	7.15	7.30	7.10	5.70	–
CCC(c1ccccc1)C(c1ccc(O)cc1)c1ccc(OCCN(C)CCO/N=C/c2ccc(O)c(C(N)=O)c2)cc1 (centres undefined)	–	–	–	–	300 nM
CCC(c1ccccc1)C(c1ccc(O)cc1)c1ccc(OCCN(C)CCOCCO/N=C/c2ccc(O)c(C(N)=O)c2)cc1 (centres undefined)	–	–	–	–	150 nM
CC/C(=C(/c1ccc(O)cc1)c1ccc(OCCN(C)CCO/N=C/c2ccc(O)c(C(=O)NCNC3CC(O[C@H]4C[C@](O)(C(=O)CO)Cc5c(O)c6c(c(O)c54)C(=O)c4c(OC)cccc4C6=O)OC(C)C3O)c2)cc1)c1ccccc1 (some centres undefined)	7.10	7.22	7.40	6.60	300 nM
CCC(c1ccccc1)C(c1ccc(O)cc1)c1ccc(OCCN(C)CCOCCOCCO/N=C/c2ccc(O)c(C(N)=O)c2)cc1 (centres undefined)	–	–	–	–	150 nM
CC/C(=C(/c1ccc(O)cc1)c1ccc(OCCN(C)CCOCCO/N=C/c2ccc(O)c(C(=O)NCNC3CC(O[C@H]4C[C@](O)(C(=O)CO)Cc5c(O)c6c(c(O)c54)C(=O)c4c(OC)cccc4C6=O)OC(C)C3O)c2)cc1)c1ccccc1 (some centres undefined)	7.70	7.40	7.52	7.15	300 nM
CC/C(=C(/c1ccc(O)cc1)c1ccc(OCN(C)C)cc1)c1ccccc1.COc1cccc2c1C(=O)c1c(O)c3c(c(O)c1C2=O)C[C@@](O)(C(=O)CO)C[C@@H]3O[C@H]1C[C@H](N)[C@H](O)[C@H](C)O1	7.15	7.00	7.00	5.70	–
CC/C(=C(/c1ccc(O)cc1)c1ccc(OCN(C)C)cc1)c1ccccc1	6.52	4.70	4.52	4.40	5 nM
COc1cccc2c1C(=O)c1c(O)c3c(c(O)c1C2=O)C[C@@](O)(C(=O)CO)C[C@@H]3O[C@H]1C[C@H](N)[C@H](O)[C@H](C)O1 [DOXORUBICIN]	–	6.82	6.52	5.00	–
CC/C(=C(/c1ccc(O)cc1)c1ccc(OCCN(C)CCOCCOCCO/N=C/c2ccc(O)c(C(=O)NCNC3CC(O[C@H]4C[C@](O)(C(=O)CO)Cc5c(O)c6c(c(O)c54)C(=O)c4c(OC)cccc4C6=O)OC(C)C3O)c2)cc1)c1ccccc1 (some centres undefined)	7.52	7.40	7.52	7.22	200 nM
